Results taken from US12590953B2, “Methods for screening cereblon modifying compounds” (CELGENE CORPORATION, priority 2018, dated 2026).
Entries after “also recorded” stand apart in the source; their conditions may differ.

Columns and labels:
[1] = target: T1, SALL4 zinc finger domains / cereblon-CRL4 (Homo sapiens, UniProt Q96SW2+Q9UJQ4, G600A); assay: In vitro ubiquitination of human SALL4 zinc fingers by human cereblon-CRL4; assay type: biochemical; details: compared with wild-type ZF4; with thalidomide
T1 construct: Human cereblon-DDB1 (cereblon amino acids 40-442 and full length DDB1); The first zinc finger domain encompasses amino acid residues 405-432; ZZ-domain-6xHis-thrombin site (N, cleaved yes); made in house; host or cells: SF9 insect cells (cereblon-DDB1, Cul4A-Rbx1); E. coli BL21 (DE3) Star (MBP-zinc finger)
Method: (§1) Purified E1, E2, ubiquitin, Cul4A-Rbx1, cereblon-DDB1, and GSPT1 proteins were used to reconstitute the ubiquitination of MBP-fused WT and mutant proteins in vitro. Substrate proteins purified by maltose affinity resin (NEB) were incubated at an approximate concentration of 30 uM. Ubiquitination components described briefly: Human cereblon-DDB1 (cereblon amino acids 40-442 and full length DDB1) and 6×his-DDB1 alone were co-expressed in SF9 insect cells in the presence of 50 μM zinc acetate, and purified by nickel affinity resin (Qiagen), HiTrap ANX column ion exchange (GE Healthcare), and Sephacryl 400 16/60 size exclusion chromatography (GE healthcare). Human full length Cul4A and Rbx1 were co-expressed in SF9 insect cells and purified by nickel affinity resin and Superdex 200 16/60 size exclusion chromatography. Purified recombinant human Ube1 E1 (E-305), UbcH5a E2 (E2-616), and ubiquitin (U-100H) were purchased from R&D systems. Components were mixed to final concentrations of 10 mM ATP, 1 μM Ube1, 25 μM UbcH5a, 200 μM Ub, 1 μM Cul4-Rbx1, 25 μM GSPT1, and 1 μM cereblon-DDB1, with or without 100 μM compound as indicated in ubiquitination assay buffer (20 mM HEPES pH 7.5, 150 mM NaCl, 10 mM MgCl2). After preincubation of E1, E2, ATP and ubiquitin for 30 minutes, and separate pre-incubation of MBP-substrate, CRBN-DDB1, Cul4-Rbx1, and compound for 5 minutes at room temperature, ubiquitination reactions were started by mixing the two pre-incubations. Reactions were incubated at 30 C for 2 hours before separation by SDS-PAGE followed by coomassie staining or immunoblot analysis.
(§2) SALL4 contains 7 zinc finger domains, 4 of which have a glycine at the same position as cereblon substrates Ikaros and Aiolos. In this example, four domains containing these 4 glycine-containing zinc fingers were tested for compound-dependent ubiquitination by cereblon-CRL4 in a fully purified, in vitro ubiquitination system (see FIG. 1). The first zinc finger domain encompasses amino acid residues 405-432, which has a sequence of […] (SEQ ID NO: 3). The second zinc finger domain encompasses amino acid residues 589-616, which has a sequence of […] (SEQ ID NO: 4). The third zinc finger domain encompasses amino acid residues 865-892, which has a sequence of […] (SEQ ID NO: 5). The fourth zinc finger domain encompasses amino acid residues 893-920, which has a sequence of […] (SEQ ID NO: 6). Ikaros zinc finger domain (amino acid residues 140-168) was used as a control, which has a sequence of […] (SEQ ID NO: 7).
(§3) More specifically, individual zinc finger domains of SALL4 were expressed in E. coli and purified via an MBP tag. Purified zinc fingers were then tested in an in vitro ubiquitination assay for cereblon binding and ubiquitination. Purified zinc fingers were incubated with purified cereblon-CRL4 ubiquitin ligase complex and purified ubiquitination cascade components Uba1, UbcH5a, UbcH5b, ATP, and ubiquitin.
(§4) Ikaros and Aiolos harbor this motif within a zinc finger domain. 4 of them contain a glycine at the position necessary to mediate cereblon binding (see FIG. 1B). The human version of these four individual zinc fingers were expressed and purified for testing in our in vitro cereblon-CRL4 ubiquitination assay (see FIG. 1C). […] The existence of preferred zinc finger domains is highly reminiscent of the cereblon substrates Ikaros and Aiolos, where a single zinc finger motif mediates cereblon recruitment and degradation.

[2] = target: T2, SALL4 zinc finger domains / cereblon-CRL4 (Homo sapiens, UniProt Q96SW2+Q9UJQ4, G416A); assay: as above; assay type: biochemical; details: compared with wild-type ZF2; with thalidomide
T2 construct: Human cereblon-DDB1 (cereblon amino acids 40-442 and full length DDB1); The first zinc finger domain encompasses amino acid residues 405-432; ZZ-domain-6xHis-thrombin site (N, cleaved yes); made in house; host or cells: SF9 insect cells (cereblon-DDB1, Cul4A-Rbx1); E. coli BL21 (DE3) Star (MBP-zinc finger)
Method: as §1, §2, §3, §4

[3] = target: T3, SALL4 zinc finger domains / cereblon-CRL4 (Homo sapiens, UniProt Q96SW2+Q9UJQ4); assay: as above; assay type: biochemical; details: MBP-tagged zinc finger, thalidomide vs DMSO
T3 construct: Human cereblon-DDB1 (cereblon amino acids 40-442 and full length DDB1); The first zinc finger domain encompasses amino acid residues 405-432; ZZ-domain-6xHis-thrombin site (N, cleaved yes); made in house; host or cells: SF9 insect cells (cereblon-DDB1, Cul4A-Rbx1); E. coli BL21 (DE3) Star (MBP-zinc finger)
Method: as §1, §2, §3, §4

[4] = tested on: SALL4 binding to cereblon; assay: Co-immunoprecipitation of CRBN and SALL4 variants in lenti-X-293 cells expressing GST-CRBN; assay type: cell-based, human; details: 40 μM thalidomide, 8 hours, 1 μM MLN4924
Method: All cells were treated with 1 μM MLN4924, and either 40 μM thalidomide (+) or DMSO vehicle control (−) as indicated for 8 hours (n=2 biological replicates).
Lenti-X-293 cells were cotransfected with pDEST27-CRBN, which encodes GST-CRBN, and pLOC empty vector (Thermo Fisher), which contains a blasticidin resistant gene. Two days after transfection, cells were trypsinized and seeded into 96-well plates through limiting dilution. After selectin with blasticidin (20 μg/mL) for 2 weeks, single clones were picked, expanded and screened for overexpression of GST-CRBN via immunoblot analysis with anti-CRBN65 antibody. Next, lenti-X-293 cells stably expressing GST-CRBN Human were infected with lentiviruses expressing SALL4 wild-type and variants to generate lenti-x-293 cells stably expressing GST-CRBN and SALL4. Then, cells were treated with DMSO or 40 μM thalidomide for 8 hours in the presence of 1 μM MLN4924, and lysed in Buffer B [50 mM Tris (pH 7.4), 150 mM NaCl, 0.5% NP-40, 10% glycerol, 1× Complete Ultra protease inhibitor (Roche), and 1× PhosphoSTOP (Roche)]. […] After washing the anti-HA resin with Buffer B for 6 times, anti-HA immunoprecipitates were eluted by boiling in 2×LDS loading buffer at 90° C. for 5 minutes, and then subjected to immunoblot analysis.

CK1α = CK1α (Homo sapiens, UniProt P48729); assay: Degradation of CK1α (data not shown)
Chain of CK1α (Q96SW2 whole entry partner): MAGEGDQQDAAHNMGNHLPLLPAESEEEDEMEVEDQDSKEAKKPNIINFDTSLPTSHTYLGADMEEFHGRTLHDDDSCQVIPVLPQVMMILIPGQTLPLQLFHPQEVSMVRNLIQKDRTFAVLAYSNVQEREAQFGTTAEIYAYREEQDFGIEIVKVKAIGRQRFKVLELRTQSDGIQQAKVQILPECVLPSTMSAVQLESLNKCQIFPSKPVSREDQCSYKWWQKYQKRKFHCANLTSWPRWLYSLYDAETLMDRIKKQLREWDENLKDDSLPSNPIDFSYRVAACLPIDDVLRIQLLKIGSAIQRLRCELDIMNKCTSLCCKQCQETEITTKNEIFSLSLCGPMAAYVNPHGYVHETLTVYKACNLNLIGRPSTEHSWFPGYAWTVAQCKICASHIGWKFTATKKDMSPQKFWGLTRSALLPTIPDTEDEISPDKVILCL
Chain of CK1α (Q16531 whole entry partner): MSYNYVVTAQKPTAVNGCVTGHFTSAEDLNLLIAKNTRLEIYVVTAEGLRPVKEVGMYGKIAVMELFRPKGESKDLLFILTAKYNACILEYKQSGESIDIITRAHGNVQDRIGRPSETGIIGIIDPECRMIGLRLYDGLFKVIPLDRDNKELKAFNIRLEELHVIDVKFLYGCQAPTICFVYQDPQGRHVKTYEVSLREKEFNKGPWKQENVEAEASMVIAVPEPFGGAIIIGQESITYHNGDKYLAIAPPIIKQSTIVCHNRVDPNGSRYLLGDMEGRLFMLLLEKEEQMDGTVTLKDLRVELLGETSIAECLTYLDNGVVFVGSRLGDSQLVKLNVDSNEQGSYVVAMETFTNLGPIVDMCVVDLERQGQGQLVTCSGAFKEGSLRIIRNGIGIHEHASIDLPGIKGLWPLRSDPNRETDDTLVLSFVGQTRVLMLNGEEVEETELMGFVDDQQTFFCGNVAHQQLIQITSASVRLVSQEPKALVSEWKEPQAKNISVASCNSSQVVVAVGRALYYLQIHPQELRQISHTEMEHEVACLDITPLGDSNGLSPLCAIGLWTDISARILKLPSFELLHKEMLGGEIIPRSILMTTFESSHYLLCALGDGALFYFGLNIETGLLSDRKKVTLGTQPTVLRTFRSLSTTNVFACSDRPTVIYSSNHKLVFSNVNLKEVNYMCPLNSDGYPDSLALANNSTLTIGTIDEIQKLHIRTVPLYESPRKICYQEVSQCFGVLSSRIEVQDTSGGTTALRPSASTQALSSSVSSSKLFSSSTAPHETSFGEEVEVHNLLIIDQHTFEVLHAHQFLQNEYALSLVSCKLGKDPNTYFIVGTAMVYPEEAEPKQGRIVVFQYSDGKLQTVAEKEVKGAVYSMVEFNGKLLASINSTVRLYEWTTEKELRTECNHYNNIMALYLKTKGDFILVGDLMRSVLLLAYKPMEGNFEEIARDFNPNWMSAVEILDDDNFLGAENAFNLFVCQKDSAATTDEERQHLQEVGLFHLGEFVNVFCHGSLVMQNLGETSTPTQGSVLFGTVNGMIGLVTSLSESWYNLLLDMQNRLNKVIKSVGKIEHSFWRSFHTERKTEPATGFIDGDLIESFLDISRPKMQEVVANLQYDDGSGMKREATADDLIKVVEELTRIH
Chain of CK1α (P48729 whole entry): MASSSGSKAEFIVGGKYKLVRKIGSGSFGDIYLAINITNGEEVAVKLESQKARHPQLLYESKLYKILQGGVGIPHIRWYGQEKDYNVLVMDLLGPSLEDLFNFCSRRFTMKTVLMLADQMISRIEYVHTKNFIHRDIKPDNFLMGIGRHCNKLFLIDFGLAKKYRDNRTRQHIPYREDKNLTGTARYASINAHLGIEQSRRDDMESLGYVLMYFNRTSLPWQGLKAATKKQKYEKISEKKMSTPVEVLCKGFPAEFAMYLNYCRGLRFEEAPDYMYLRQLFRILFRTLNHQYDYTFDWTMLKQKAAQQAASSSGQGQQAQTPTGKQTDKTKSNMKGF

T2 sequence (Q96SW2 40-442, stated change not applied): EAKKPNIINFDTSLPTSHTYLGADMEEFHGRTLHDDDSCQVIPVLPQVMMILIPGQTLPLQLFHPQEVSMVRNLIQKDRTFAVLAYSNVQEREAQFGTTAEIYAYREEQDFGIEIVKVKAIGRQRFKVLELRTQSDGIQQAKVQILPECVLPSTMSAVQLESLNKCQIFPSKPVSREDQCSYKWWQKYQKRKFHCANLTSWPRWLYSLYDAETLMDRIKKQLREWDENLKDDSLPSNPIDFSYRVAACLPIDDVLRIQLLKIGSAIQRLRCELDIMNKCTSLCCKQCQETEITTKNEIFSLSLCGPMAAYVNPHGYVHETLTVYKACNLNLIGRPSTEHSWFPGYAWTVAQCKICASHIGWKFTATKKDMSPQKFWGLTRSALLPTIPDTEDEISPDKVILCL
T2 sequence (Q9UJQ4 405-432 G416A): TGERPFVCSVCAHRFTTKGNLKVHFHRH
T2 sequence (Q16531 whole entry partner, the tested form may be a part): as the sequence (Q16531 whole entry partner) above
T2 sequence (Q13619 whole entry partner, the tested form may be a part): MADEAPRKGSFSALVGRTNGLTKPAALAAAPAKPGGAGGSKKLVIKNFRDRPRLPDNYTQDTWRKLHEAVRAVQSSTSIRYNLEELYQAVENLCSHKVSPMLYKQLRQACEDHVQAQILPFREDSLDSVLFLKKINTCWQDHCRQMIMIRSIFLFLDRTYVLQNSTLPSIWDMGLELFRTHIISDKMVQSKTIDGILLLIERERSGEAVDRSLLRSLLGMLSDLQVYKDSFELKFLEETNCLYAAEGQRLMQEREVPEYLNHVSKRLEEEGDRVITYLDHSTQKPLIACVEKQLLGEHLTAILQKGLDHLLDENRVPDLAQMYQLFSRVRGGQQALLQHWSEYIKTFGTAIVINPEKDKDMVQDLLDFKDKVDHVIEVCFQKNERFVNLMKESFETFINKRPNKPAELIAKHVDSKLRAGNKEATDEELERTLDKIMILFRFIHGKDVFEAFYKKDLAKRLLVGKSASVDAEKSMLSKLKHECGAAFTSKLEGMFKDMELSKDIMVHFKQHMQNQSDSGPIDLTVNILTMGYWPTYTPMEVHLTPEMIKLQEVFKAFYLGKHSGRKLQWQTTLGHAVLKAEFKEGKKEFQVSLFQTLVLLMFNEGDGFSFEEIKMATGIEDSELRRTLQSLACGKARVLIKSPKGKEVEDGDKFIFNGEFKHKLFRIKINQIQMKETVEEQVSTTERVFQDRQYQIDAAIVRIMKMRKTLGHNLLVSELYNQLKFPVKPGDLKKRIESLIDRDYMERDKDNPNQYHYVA
T2 sequence (P62877 whole entry partner, the tested form may be a part): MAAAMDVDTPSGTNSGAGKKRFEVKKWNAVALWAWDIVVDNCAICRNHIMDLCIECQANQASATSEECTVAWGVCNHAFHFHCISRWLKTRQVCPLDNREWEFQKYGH
T1 sequence (Q96SW2 40-442): as the sequence (Q96SW2 40-442, stated change not applied) above
T1 sequence (Q9UJQ4 589-616 G600A): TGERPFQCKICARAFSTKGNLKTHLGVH
T1 sequence (Q16531 whole entry partner, the tested form may be a part): as the sequence (Q16531 whole entry partner) above
T1 sequence (Q13619 whole entry partner, the tested form may be a part): as the sequence (Q13619 whole entry partner, the tested form may be a part) above
T1 sequence (P62877 whole entry partner, the tested form may be a part): as the sequence (P62877 whole entry partner, the tested form may be a part) above

O=C1CCC(N2C(=O)c3ccccc3C2=O)C(=O)N1 (stereo not drawn) [thalidomide]
Ubiquitination of G600A mutant SALL4 zinc finger 4 [1]: significantly reduced upon mutation of the glycine to alanine
Ubiquitination of G416A mutant SALL4 zinc finger 2 [2]: significantly reduced upon mutation of the glycine to alanine; also recorded: significantly reduced ubiquitination
Ubiquitination of SALL4 zinc finger 2 (ZF2, a.a. 410-432) by cereblon-CRL4 [3]: robustly ubiquitinated in a thalidomide-dependent manner; also recorded: efficiently ubiquitinated by cereblon-CRL4 in a thalidomide-dependent manner; also recorded: efficiently ubiquitinated by human cereblon in a thalidomide-dependent manner
Ubiquitination of SALL4 zinc finger 4 (ZF4, a.a. 594-616) by cereblon-CRL4 [3]: also ubiquitinated in the presence of thalidomide, but more weakly; also recorded: weak ubiquitination
Ubiquitination of SALL4 zinc finger domain a.a. 405-432 by cereblon-CRL4 ([3]; 100 μM compound): observed only in the presence of cereblon modifying compound; also recorded: ubiquitinated in a thalidomide-dependent manner quite strongly; also recorded: predominantly ubiquitinated by cereblon-CRL4 in a thalidomide-dependent manner
Binding of G416A SALL4 to cereblon (co-IP) [4]: disrupted cereblon binding in cells
Binding of G600A SALL4 to cereblon (co-IP) [4]: able to bind cereblon
Binding of wild-type SALL4 to cereblon (co-IP) [4]: able to bind cereblon
Triggering the degradation of CK1α (CK1α): does not trigger the degradation of CK1α
